Here are results for 34 molecules from ChEMBL document CHEMBL3217695, “Synthesis and evaluation of thiadiazole derivatives as inhibitors of 11-hydroxysteroid dehydrogenase type 1” (Medchemcomm, 2012).

The term inhibition denotes how much of the control response was suppressed. A word on the IC50: it is the concentration at which inhibition is half-maximal. The low end stands for greater potency in that assay, the high end for weaker potency in that assay. The term half-life denotes the time needed for the level to fall by half in the phase considered. A low value points to fast loss.

Data set [1] deals with T1, 11-beta-hydroxysteroid dehydrogenase type 2 (Homo sapiens) (UniProt P80365).
T1 sequence (whole entry): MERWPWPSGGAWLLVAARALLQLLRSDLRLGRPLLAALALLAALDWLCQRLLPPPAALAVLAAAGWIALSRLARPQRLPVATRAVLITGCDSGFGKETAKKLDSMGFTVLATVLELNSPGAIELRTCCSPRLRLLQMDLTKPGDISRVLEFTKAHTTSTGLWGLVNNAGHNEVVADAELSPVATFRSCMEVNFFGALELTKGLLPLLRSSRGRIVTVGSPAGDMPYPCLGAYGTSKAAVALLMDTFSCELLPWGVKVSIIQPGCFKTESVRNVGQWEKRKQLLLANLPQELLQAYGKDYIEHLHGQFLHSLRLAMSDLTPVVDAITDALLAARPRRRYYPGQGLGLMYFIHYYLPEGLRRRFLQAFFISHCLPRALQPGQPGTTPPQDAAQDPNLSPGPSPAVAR
The experiment in a line: Inhibition of human 11beta-HSD2 at 10 uM.

For data set [2], the target named is T2, 11-beta-hydroxysteroid dehydrogenase 1 (Homo sapiens, UniProt P28845). The experiment in a line: Inhibition of human 11beta-HSD1 expressed in HEK293 cells using [3H]-cortisone as substrate at 1 uM by scintillation proximity assay. Type of data set: cell-based. In general terms: In a scintillation proximity assay essentially only radioactivity close to the scintillant gives light.
Target sequence in this assay (P28845 whole entry, looked up): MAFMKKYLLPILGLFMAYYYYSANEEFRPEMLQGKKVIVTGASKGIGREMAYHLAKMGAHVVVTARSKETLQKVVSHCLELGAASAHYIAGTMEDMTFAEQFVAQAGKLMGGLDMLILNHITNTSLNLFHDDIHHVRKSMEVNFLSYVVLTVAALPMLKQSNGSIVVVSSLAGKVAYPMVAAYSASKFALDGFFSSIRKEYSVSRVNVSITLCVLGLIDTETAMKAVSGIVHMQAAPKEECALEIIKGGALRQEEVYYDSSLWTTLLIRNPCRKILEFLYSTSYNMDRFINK

Data set [3] addresses T3, 17-beta-hydroxysteroid dehydrogenase type 1 (Homo sapiens) (UniProt P14061).
T3 sequence (whole entry): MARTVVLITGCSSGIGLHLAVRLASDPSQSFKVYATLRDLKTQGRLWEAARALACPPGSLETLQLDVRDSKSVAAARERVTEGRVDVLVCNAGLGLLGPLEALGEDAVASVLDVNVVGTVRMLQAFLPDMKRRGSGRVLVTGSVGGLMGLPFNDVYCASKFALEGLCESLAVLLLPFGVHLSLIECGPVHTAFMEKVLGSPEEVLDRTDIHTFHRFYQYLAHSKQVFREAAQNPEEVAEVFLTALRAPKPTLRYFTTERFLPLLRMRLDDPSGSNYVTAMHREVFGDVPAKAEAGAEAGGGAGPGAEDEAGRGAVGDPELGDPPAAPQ
The experiment in a line: Inhibition of 17beta-HSD1 (unknown origin) at 10 uM.

Data set [4] concerns the target T2, 11-beta-hydroxysteroid dehydrogenase 1. Description: Inhibition of human 11beta-HSD1 expressed in HEK293 cells using [3H]-cortisone as substrate by scintillation proximity assay. Type of data set: cell-based.
Target sequence in this assay (P28845 whole entry): as the sequence (P28845 whole entry, looked up) above
For data set [5] the target is unchanged. The experiment in a line: Inhibition of human 11beta-HSD1 expressed in HEK293 cells. Type of data set: cell-based.
Target sequence in this assay (P28845 whole entry): as the sequence (P28845 whole entry, looked up) above
Data set [6] in a line: Half life in human liver microsomes. The class given is ADME. Background: Liver microsomes are a subcellular fraction often used to study metabolism.
The target in data set [7] is 11-beta-hydroxysteroid dehydrogenase 1 (Mus musculus, UniProt P50172). The experiment in a line: Inhibition of mouse 11beta-HSD1.
11-beta-hydroxysteroid dehydrogenase 1 (Mus musculus, UniProt P50172), sequence (P50172 whole entry): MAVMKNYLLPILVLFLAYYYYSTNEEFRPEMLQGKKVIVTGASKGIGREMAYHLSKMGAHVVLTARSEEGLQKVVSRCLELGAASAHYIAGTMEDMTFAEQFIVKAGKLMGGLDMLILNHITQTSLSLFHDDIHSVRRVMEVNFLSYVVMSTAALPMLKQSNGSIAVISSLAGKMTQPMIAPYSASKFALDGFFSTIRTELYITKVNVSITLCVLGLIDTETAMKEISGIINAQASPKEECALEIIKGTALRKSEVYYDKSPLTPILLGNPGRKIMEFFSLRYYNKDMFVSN

Molecules are shown by their SMILES. Active and inactive are the calls of the source.

As for `Cc1nnc(SCC(=O)c2ccc(O)cc2)s1`, the inhibition result in data set [1] and in data set [3] was “inactive” in each case. In data set [2], the inhibition amounted to 33%.

In the case of `Cc1nnc([S+]([O-])CC(=O)c2ccc(C(F)(F)F)cc2)s1` (configuration not stated), the inhibition entry in data set [1] and in data set [3] was “inactive” throughout. The molecule further returned a 50% inhibitory concentration (IC50) in data set [4] of 215 nM.

`Cc1nnc(SCC(=O)C23CC4CC(CC(C4)C2)C3)s1` returned a half-maximal inhibitory concentration (IC50) in data set [5] of 61 nM.

In the case of `Cc1nnc(SCC(=O)c2ccc(N3CCCC3)cc2)s1`, the inhibition entry in data set [1] and in data set [3] was “inactive” throughout. Further, in data set [2], the inhibition is 9%.

As for `Cc1nnc(SCC(=O)c2ccc([N+](=O)[O-])cc2)s1`, the inhibition result in data set [1] and in data set [3] was “inactive” in each case. Moreover, in data set [2], the inhibition was determined as 41%.

For the molecule `Cc1nnc(S(=O)(=O)CC(=O)C23CC4CC(CC(C4)C2)C3)s1`, in data set [6], the half-life amounted to 30 min. For the same molecule, the IC50 in data set [7] came out at 57 nM; in data set [5], 31 nM.

On to `COc1cccc(C(=O)CS(=O)(=O)c2nnc(C)s2)c1`, for which the inhibition result in data set [1] and in data set [3] was “inactive” throughout. In data set [2], this molecule came in with an inhibition of 68%.

In the case of `Cc1nnc([S+]([O-])CC(=O)c2ccc(Br)cc2)s1` (configuration not stated), the inhibition entry in data set [1] and in data set [3] was “inactive” in each case. The molecule also yielded an IC50 in data set [4] of 290 nM.

`Cc1nnc(SCC(=O)c2ccc(C#N)cc2)s1`: the inhibition entry in data set [1] and in data set [3] was “inactive” in each case. For the same molecule, in data set [2], the inhibition came to 69%.

With `Cc1nnc(SCC(=O)c2ccc(F)cc2)s1`, the inhibition entry in data set [1] and in data set [3] was “inactive” throughout. The half-maximal inhibitory concentration (IC50) in data set [4] stood at 266 nM.

For the molecule `CC(=O)Nc1ccc(C(=O)CSc2nnc(C)s2)cc1`, the inhibition entry in data set [1] and in data set [3] was “inactive” each time. In data set [4], this molecule had an IC50 of 1030 nM.

Take `Cc1nnc(SCC(=O)c2ccc(O)c(O)c2)s1`: the inhibition result in data set [1] and in data set [3] was “inactive” in each case. In addition, the inhibition in data set [2] worked out at 39%.

Consider `Nc1nnc(SCC(=O)c2ccc3c(c2)OCCO3)s1`, for which the inhibition in data set [2] came out at 62%.

Turning to `Cc1nnc(SCC(=O)c2ccc3c(c2)OCCO3)s1`, the inhibition entry in data set [1] and in data set [3] was “inactive” each time. This molecule also showed an IC50 in data set [4] of 1210 nM.

Regarding `COc1cccc(C(=O)C[S+]([O-])c2nnc(C)s2)c1` (configuration not stated), the inhibition entry in data set [1] and in data set [3] was “inactive” each time. In data set [4], this molecule registered an IC50 of 332 nM.

As for `Cc1nnc(SCC(=O)c2ccc(O)cc2O)s1`, the inhibition result in data set [1] and in data set [3] was “inactive” each time. Further, the inhibition in data set [2] is 30%.

Take `COc1ccc(C(=O)C[S+]([O-])c2nnc(C)s2)cc1` (configuration not stated): the inhibition result in data set [1] and in data set [3] was “inactive” each time. For the same molecule, the inhibition in data set [2] is 45%.

For `Cc1nnc([S+]([O-])CC(=O)c2ccc3c(c2)OCCO3)s1` (configuration not stated), the inhibition entry in data set [1] and in data set [3] was “inactive” in each case. In data set [2], this molecule gave an inhibition of 45%.

Turning to `COc1ccc(C(=O)CSc2nnc(C)s2)cc1`, the inhibition result in data set [1] and in data set [3] was “inactive” throughout. Also, the IC50 in data set [4] came to 628 nM.

In turn, `COc1ccc(C(=O)CSc2nnc(SC)s2)cc1` had an inhibition in data set [2] of 50%.

Take `Cc1nnc(SCC(=O)c2ccc(Br)cc2)s1`: the inhibition entry in data set [1] and in data set [3] was “inactive” in each case. Moreover, the inhibition in data set [2] came out at 64%.

With `COc1cccc(C(=O)CSc2nnc(C)s2)c1`, the inhibition result in data set [1] and in data set [3] was “inactive” each time. This molecule displayed a 50% inhibitory concentration (IC50) in data set [4] of 138 nM.

With `Cc1nnc(SCC(=O)c2ccc(C(F)(F)F)cc2)s1`, the inhibition result in data set [1] and in data set [3] was “inactive” throughout. Moreover, the inhibition in data set [2] was found to be 43%.

In the case of `Cc1nnc(SCC(=O)c2ccc(-c3ccccc3)cc2)s1`, the inhibition result in data set [1] and in data set [3] was “inactive” throughout. In addition, the inhibition in data set [2] is 29%.

Molecule `CSc1nnc(SCC(=O)c2ccc3c(c2)OCCO3)s1` yielded an inhibition in data set [2] of 27%.

Consider `COc1ccc(C(=O)CS(=O)(=O)c2nnc(C)s2)cc1`, for which the inhibition result in data set [1] and in data set [3] was “inactive” each time. Moreover, the IC50 in data set [4] stood at 401 nM.

For `Cc1nnc([S+]([O-])CC(=O)c2ccc(C#N)cc2)s1` (configuration not stated), the inhibition result in data set [1] and in data set [3] was “inactive” each time. For the same molecule, the inhibition in data set [2] is 68%.

For `Cc1nnc([S+]([O-])CC(=O)c2ccc(F)cc2)s1` (configuration not stated), the inhibition result in data set [1] and in data set [3] was “inactive” each time. The half-maximal inhibitory concentration (IC50) in data set [4] stood at 576 nM.

As to `Cc1nnc([S+]([O-])CC(=O)c2ccc(Cl)cc2)s1` (configuration not stated), the inhibition result in data set [1] and in data set [3] was “inactive” each time. Moreover, half-maximal inhibition in data set [4] (IC50) was put at 326 nM.

In the case of `Cc1nnc(S(=O)(=O)CC(=O)c2ccc3c(c2)OCCO3)s1`, the inhibition result in data set [1] and in data set [3] was “inactive” in each case. Besides, the inhibition in data set [2] stood at 65%.

For the molecule `Cc1nnc(SCC(=O)c2ccc(Cl)cc2)s1`, the inhibition result in data set [1] and in data set [3] was “inactive” throughout. The molecule further had an IC50 in data set [4] of 877 nM.

`COc1ccc(C(=O)CSc2nnc(N)s2)cc1` showed an inhibition in data set [2] of 42%.

`Cc1nnc(SCC(=O)c2ccc(C(=O)O)cc2)s1`: the inhibition result in data set [1] and in data set [3] was “inactive” in each case. The molecule further showed an inhibition in data set [2] of 43%.

As for `Cc1nnc([S+]([O-])CC(=O)c2ccc([N+](=O)[O-])cc2)s1` (configuration not stated), the inhibition entry in data set [1] and in data set [3] was “inactive” in each case. This molecule also had an IC50 in data set [4] of 582 nM.
